In one data set the test system is MCF-7. Description: Cytotoxicity of AGM-330-CPP fusion peptides. In kind it is cell-based, Human. Particulars: MCF-7, fusion peptide alone, Example 11.
Another data set concerns HCT-116. Nature of the data set: Cytotoxicity of AGM-330-CPP fusion peptides. Type of data set: cell-based, Human. Particulars: HCT-116, fusion peptide alone, Example 11.
In the next data set the test system is MDA-MB-231-luc cells. Description: Tumor suppression in breast cancer xenograft model. In kind it is in vivo, NPG mice. The procedure: FIG. 14B is a schematic representation of the experimental protocol. Here, anesthetized 6-week-old […] NPG mice were inoculated with a 1:1 mix of Matrigel and 1×10^6 MDA-MB-231-luc cells into the mammary fat pad. […] Nuclei were stained with DAPI (blue), and the scale bar is 50 μm. Bar graphs represent the mean±SD, and statistical analyses were performed by one-way ANOVA with Dunnett's multiple comparison. *, **, and *** indicate P<0.05, P<0.01, and P<0.001, respectively. […]
All animal experiments were performed in accordance with IACUC guidelines (GIST-2019-040). For tumorigenesis experiments, anesthetized 6-week-old female NOD-scid Il2rg^−/− mice (NPG™, VITALSTAR) were inoculated in the mammary fat pad with 1×10^6 MDA-MB-231-luc cells in a volume of 100 μl (n=5˜6 for each group). After tumor cell inoculation, when the tumor volume reached approximately 100 mm^3, the mice were randomly divided into the following five groups: (i) control, (ii) low-dose paclitaxel (2 mg/kg), (iii) high-dose paclitaxel (10 mg/kg), (iv) AGM-330 (16.68 mg/kg or 8.34 mg/kg), and (v) AGM-330-PTX (19.05 mg/kg or 10.71 mg/kg). The tumor size was measured twice a week, and the tumor volume was calculated with the following formula:
For the bioluminescent imaging experiment, D-luciferin (150 mg/kg; PerkinElmer) was intraperitoneally injected into each mouse, and an IVIS 100 imaging system (Xenogen, Corporation, Alameda, CA) was used for bioluminescent monitoring. Mice were anesthetized with vaporized isoflurane (BK Pharm, Ilsan, Korea) and placed in an imaging chamber. After 10 min, each animal was imaged with an exposure time of 1 min. All bioluminescent image data were provided by Living Image software (version 4.5.2, PerkinElmer). Photons detected from tumors were converted to average radiance values (photon/see/cm^2/sr), which are quantitative data obtained from a region of intensity (ROI) and include the photons emitted by bioluminescent cells from an assigned rectangular area over the whole body of each mouse.
Following in vitro proliferation analysis on cancer lines, the present inventors investigated whether AGM-330t-PTX could be a potential therapeutic agent in vivo. The present inventors inoculated MDA-MB-231-luc cells into the mammary fat pad of NPG mice. After the subcutaneous tumors grew to 100 mm^3, comparative efficacy studies were performed by dividing the animals into five groups (n=5/group) treated with vehicle (PBS), AGM-330t (16.68 mg/kg), PTX (2 or 10 mg/kg, respectively) or AGM-330t-PTX (19.05 mg/kg) twice a week by tail vein injection (FIG. 14B). Tumor growth was monitored by measuring volumes twice a week with a caliber rule over the course of 3 weeks.
The present inventors also performed histological staining of the excised tumors, and an independent pathologist evaluated the slides.

A short description of data set [1]: Body weight and serum blood chemistry in xenograft mice.

Structures are written as SMILES.

Regarding `CC[C@H](C)[C@H](NC(=O)[C@H](CCCNC(=N)N)NC(=O)[C@H](CC(C)C)NC(=O)[C@@H](NC(=O)[C@H](CCCNC(=N)N)NC(=O)[C@H](CCSC)NC(=O)[C@@H](NC(=O)[C@@H](N)CCCNC(=N)N)[C@@H](C)CC)[C@@H](C)CC)C(=O)N[C@@H](CC(C)C)C(=O)N[C@@H](CCCCN)C(=O)N[C@@H](CC(C)C)C(=O)N[C@@H](C)C(=O)N[C@@H](CCCNC(=N)N)C(=O)NCCCC[C@H](NC(=O)[C@H](CCCNC(=N)N)NC(=O)[C@H](C)NC(=O)[C@H](CC(C)C)NC(=O)[C@H](CCCCN)NC(=O)[C@H](CC(C)C)NC(=O)[C@@H](NC(=O)[C@H](CCCNC(=N)N)NC(=O)[C@H](CC(C)C)NC(=O)[C@@H](NC(=O)[C@H](CCCNC(=N)N)NC(=O)[C@H](CCSC)NC(=O)[C@@H](NC(=O)[C@@H](N)CCCNC(=N)N)[C@@H](C)CC)[C@@H](C)CC)[C@@H](C)CC)C(=O)NCCCC[C@H](NC(=O)[C@H](CCCCNC(=O)[C@H](CCCNC(=N)N)NC(=O)[C@H](C)NC(=O)[C@H](CC(C)C)NC(=O)[C@H](CCCCN)NC(=O)[C@H](CC(C)C)NC(=O)[C@@H](NC(=O)[C@H](CCCNC(=N)N)NC(=O)[C@H](CC(C)C)NC(=O)[C@@H](NC(=O)[C@H](CCCNC(=N)N)NC(=O)[C@H](CCSC)NC(=O)[C@@H](NC(=O)[C@@H](N)CCCNC(=N)N)[C@@H](C)CC)[C@@H](C)CC)[C@@H](C)CC)NC(=O)[C@H](CCCNC(=N)N)NC(=O)[C@H](C)NC(=O)[C@H](CC(C)C)NC(=O)[C@H](CCCCN)NC(=O)[C@H](CC(C)C)NC(=O)[C@@H](NC(=O)[C@H](CCCNC(=N)N)NC(=O)[C@H](CC(C)C)NC(=O)[C@@H](NC(=O)[C@H](CCCNC(=N)N)NC(=O)[C@H](CCSC)NC(=O)[C@@H](NC(=O)[C@@H](N)CCCNC(=N)N)[C@@H](C)CC)[C@@H](C)CC)[C@@H](C)CC)C(=O)N[C@@H](CSSC[C@H](NC(=O)[C@H](CCCCNC(=O)[C@H](CCCCNC(=O)CCOCCOCCOCCOCCOCCOCCNC(=O)[C@H](CCCCN)NC(=O)[C@H](CC(C)C)NC(=O)[C@H](Cc1ccc(O)cc1)NC(=O)[C@@H](NC(=O)[C@H](CCSC)NC(=O)[C@H](C)NC(=O)CNC(=O)[C@H](Cc1c[nH]cn1)NC(=O)[C@@H](N)CCCNC(=N)N)C(C)C)NC(=O)CCOCCOCCOCCOCCOCCOCCNC(=O)[C@H](CCCCN)NC(=O)[C@H](CC(C)C)NC(=O)[C@H](Cc1ccc(O)cc1)NC(=O)[C@@H](NC(=O)[C@H](CCSC)NC(=O)[C@H](C)NC(=O)CNC(=O)[C@H](Cc1c[nH]cn1)NC(=O)[C@@H](N)CCCNC(=N)N)C(C)C)NC(=O)[C@H](CCCCNC(=O)CCOCCOCCOCCOCCOCCOCCNC(=O)[C@H](CCCCN)NC(=O)[C@H](CC(C)C)NC(=O)[C@H](Cc1ccc(O)cc1)NC(=O)[C@@H](NC(=O)[C@H](CCSC)NC(=O)[C@H](C)NC(=O)CNC(=O)[C@H](Cc1c[nH]cn1)NC(=O)[C@@H](N)CCCNC(=N)N)C(C)C)NC(=O)CCOCCOCCOCCOCCOCCOCCNC(=O)[C@H](CCCCN)NC(=O)[C@H](CC(C)C)NC(=O)[C@H](Cc1ccc(O)cc1)NC(=O)[C@@H](NC(=O)[C@H](CCSC)NC(=O)[C@H](C)NC(=O)CNC(=O)[C@H](Cc1c[nH]cn1)NC(=O)[C@@H](N)CCCNC(=N)N)C(C)C)C(=O)O)C(=O)O` [AGM-330t-tCPP], the IC50 (usually the concentration that gives 50% inhibition) in the data set on MCF-7 came to 3.8 µM; in the data set with HCT-116 it was 3.79 µM.
`CSCC[C@H](NC(=O)[C@H](C)NC(=O)CNC(=O)[C@H](Cc1c[nH]cn1)NC(=O)[C@@H](N)CCCNC(=N)N)C(=O)N[C@H](C(=O)N[C@@H](Cc1ccc(O)cc1)C(=O)N[C@@H](CC(C)C)C(=O)N[C@@H](CCCCN)C(=O)NCCOCCOCCOCCOCCOCCOCCOCCOCCOCCOCCOCCOCCC(=O)NCCCC[C@H](NC(=O)CCOCCOCCOCCOCCOCCOCCOCCOCCOCCOCCOCCOCCNC(=O)[C@H](CCCCN)NC(=O)[C@H](CC(C)C)NC(=O)[C@H](Cc1ccc(O)cc1)NC(=O)[C@@H](NC(=O)[C@H](CCSC)NC(=O)[C@H](C)NC(=O)CNC(=O)[C@H](Cc1c[nH]cn1)NC(=O)[C@@H](N)CCCNC(=N)N)C(C)C)C(=O)NCCCC[C@H](NC(=O)[C@H](CCCCNC(=O)CCOCCOCCOCCOCCOCCOCCOCCOCCOCCOCCOCCOCCNC(=O)[C@H](CCCCN)NC(=O)[C@H](CC(C)C)NC(=O)[C@H](Cc1ccc(O)cc1)NC(=O)[C@@H](NC(=O)[C@H](CCSC)NC(=O)[C@H](C)NC(=O)CNC(=O)[C@H](Cc1c[nH]cn1)NC(=O)[C@@H](N)CCCNC(=N)N)C(C)C)NC(=O)CCOCCOCCOCCOCCOCCOCCOCCOCCOCCOCCOCCOCCNC(=O)[C@H](CCCCN)NC(=O)[C@H](CC(C)C)NC(=O)[C@H](Cc1ccc(O)cc1)NC(=O)[C@@H](NC(=O)[C@H](CCSC)NC(=O)[C@H](C)NC(=O)CNC(=O)[C@H](Cc1c[nH]cn1)NC(=O)[C@@H](N)CCCNC(=N)N)C(C)C)C(=O)N[C@@H](CSC1CC(=O)N(CCC(=O)O[C@@H](C(=O)O[C@H]2C[C@@]3(O)[C@@H](OC(=O)c4ccccc4)[C@@H]4[C@]5(OC(C)=O)CO[C@@H]5C[C@H](O)[C@@]4(C)C(=O)[C@H](OC(C)=O)C(=C2C)C3(C)C)[C@@H](NC(=O)c2ccccc2)c2ccccc2)C1=O)C(=O)O)C(C)C` (some centres unmarked) [AGM-330t-PTX] yielded an average tumor volume in the data set with MDA-MB-231-luc cells (19.05 mg/kg twice a week, tail vein, n=5) of 807±90 mm^3. For the same compound, the “decrease of average tumor volume with respect to the same dose PTX” value with MDA-MB-231-luc cells (19.05 mg/kg vs PTX 2 mg/kg) is recorded as “approximately 52%”. The “final average tumor weight” value in the data set on MDA-MB-231-luc cells (19.05 mg/kg, n=5) was determined as 1.3 ± 0.1 g. For the same compound, in the data set on MDA-MB-231-luc cells (mouse, in vivo), the “apoptotic cell nuclei in excised tumors (TUNEL)” value is recorded as “increase in apoptotic cell nuclei” and the “number of cancerous cells in excised tumors (H&E staining, Ki-67)” value is recorded as “reduction in the number of cancerous cells”. The “mouse body weights compared to vehicle (PBS) administration” value in data set [1] (AGM-330t-PTX 19.05 mg/kg, 3 weeks) is listed as “not affected”. Moreover, the “blood chemistry analysis (ALB, GOT, GPT, TP-PS, UA)” value in data set [1] (serum of xenografted mice) was “no adverse signs of toxicity”.
Regarding `CC[C@H](C)[C@H](NC(=O)[C@H](CCCNC(=N)N)NC(=O)[C@H](CC(C)C)NC(=O)[C@@H](NC(=O)[C@H](CCCNC(=N)N)NC(=O)[C@H](CCSC)NC(=O)[C@@H](NC(=O)[C@@H](N)CCCNC(=N)N)[C@@H](C)CC)[C@@H](C)CC)C(=O)N[C@@H](CC(C)C)C(=O)N[C@@H](CCCCN)C(=O)N[C@@H](CC(C)C)C(=O)N[C@@H](C)C(=O)N[C@@H](CCCNC(=N)N)C(=O)NCCCC[C@H](NC(=O)[C@H](CCCNC(=N)N)NC(=O)[C@H](C)NC(=O)[C@H](CC(C)C)NC(=O)[C@H](CCCCN)NC(=O)[C@H](CC(C)C)NC(=O)[C@@H](NC(=O)[C@H](CCCNC(=N)N)NC(=O)[C@H](CC(C)C)NC(=O)[C@@H](NC(=O)[C@H](CCCNC(=N)N)NC(=O)[C@H](CCSC)NC(=O)[C@@H](NC(=O)[C@@H](N)CCCNC(=N)N)[C@@H](C)CC)[C@@H](C)CC)[C@@H](C)CC)C(=O)N[C@@H](CSSC[C@H](NC(=O)[C@H](CCCCNC(=O)CCOCCOCCOCCOCCOCCOCCNC(=O)[C@H](CCCCN)NC(=O)[C@H](CC(C)C)NC(=O)[C@H](Cc1ccc(O)cc1)NC(=O)[C@@H](NC(=O)[C@H](CCSC)NC(=O)[C@H](C)NC(=O)CNC(=O)[C@H](Cc1c[nH]cn1)NC(=O)[C@@H](N)CCCNC(=N)N)C(C)C)NC(=O)CCOCCOCCOCCOCCOCCOCCNC(=O)[C@H](CCCCN)NC(=O)[C@H](CC(C)C)NC(=O)[C@H](Cc1ccc(O)cc1)NC(=O)[C@@H](NC(=O)[C@H](CCSC)NC(=O)[C@H](C)NC(=O)CNC(=O)[C@H](Cc1c[nH]cn1)NC(=O)[C@@H](N)CCCNC(=N)N)C(C)C)C(=O)O)C(=O)O` [AGM-330d-dCPP], the IC50 was found to be 4.21 µM with MCF-7 and 5.47 µM in the data set on HCT-116.
